Laboratory results as given in PubChem BioAssay AID1963446 (Molecular Pharmacology Branch, DTP, NCI, 2024).

System: 993429-296-R-J1-PDC complex spheroid growth, percent test/control
Experiment: Anticancer human tumor 993429-296-R-J1-PDC patient-derived uterine sarcoma cell line growth inhibition [Asc]
Settings: for IC50: curve of first compound; for viability, T/C: stronger effect = lower value
How it was run: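 Tumor cells were grown as complex spheroids with human endothelial cells (HUVEC) and human mesenchymal stem cells as stroma. Agents were tested alone and in combination, in half-log steps down from the clinical Cmax, or from 10 microM where Cmax was unknown.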

[1] = second compound 0.1 µM, first compound 0.00316 µM
[2] = second compound 0.1 µM, first compound 0.01 µM
[3] = second compound 0.1 µM, first compound 0.0316 µM
[4] = second compound 0.1 µM, first compound 0.1 µM
[5] = second compound 0.316 µM, first compound 0.00316 µM
[6] = second compound 0.316 µM, first compound 0.01 µM
[7] = second compound 0.316 µM, first compound 0.0316 µM
[8] = second compound 0.316 µM, first compound 0.1 µM
[9] = second compound 1 µM, first compound 0.00316 µM
[10] = second compound 1 µM, first compound 0.01 µM
[11] = second compound 1 µM, first compound 0.0316 µM
[12] = second compound 1 µM, first compound 0.1 µM
[13] = second compound 3.16 µM, first compound 0.00316 µM
[14] = second compound 3.16 µM, first compound 0.01 µM
[15] = second compound 3.16 µM, first compound 0.0316 µM
[16] = second compound 3.16 µM, first compound 0.1 µM
[17] = second compound 10 µM, first compound 0.00316 µM
[18] = second compound 10 µM, first compound 0.01 µM
[19] = second compound 10 µM, first compound 0.0316 µM
[20] = second compound 10 µM, first compound 0.1 µM
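Note: spheroids exposed to compounds for seven days.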

COc1c(OCCCN2CCOCC2)ccc2c3n(c(=NC(=O)c4cnc(N)nc4)nc12)CCN3 + Cc1c(S(C)(=O)=O)c(-c2cc(F)cc(N3CCN(c4ccc(NS(=O)(=O)c5ccc(NC(CCN6CCC(C(=O)OCCCP(=O)(O)O)CC6)CSc6ccccc6)c(S(=O)(=O)C(F)(F)F)c5)cc4)CC3)c2)c(-c2ccc(Cl)cc2)n1C(C)C
IC50 (second compound 0.1 µM): 12.6 nM
IC50 (second compound 0.316 µM): 11.6 nM
IC50 (second compound 1 µM): 4.23 nM
IC50 (second compound 3.16 µM): < 3.16 nM
IC50 (second compound 10 µM): 10.1 nM
viability, T/C [1]: 76.5%
viability, T/C [2]: 54.1%
viability, T/C [3]: 29.3%
viability, T/C [4]: 3.96%
viability, T/C (second compound 0.1 µM, first compound 0.316 µM): 1.63%
viability, T/C (second compound 0.1 µM, first compound 1 µM): 0.23%
viability, T/C [5]: 71.7%
viability, T/C [6]: 54%
viability, T/C [7]: 22.2%
viability, T/C [8]: 3.44%
viability, T/C (second compound 0.316 µM, first compound 0.316 µM): 0.88%
viability, T/C (second compound 0.316 µM, first compound 1 µM): 0.17%
viability, T/C [9]: 54.2%
viability, T/C [10]: 37.9%
viability, T/C [11]: 23.3%
viability, T/C [12]: 3.11%
viability, T/C (second compound 1 µM, first compound 0.316 µM): 0.68%
viability, T/C (second compound 1 µM, first compound 1 µM): 0.31%
viability, T/C [13]: 35.8%
viability, T/C [14]: 33.7%
viability, T/C [15]: 14.8%
viability, T/C [16]: 2.35%
viability, T/C (second compound 3.16 µM, first compound 0.316 µM): 0.33%
viability, T/C (second compound 3.16 µM, first compound 1 µM): 0.18%
viability, T/C [17]: 79.3%
viability, T/C [18]: 49.4%
viability, T/C [19]: 20.7%
viability, T/C [20]: 1.24%
viability, T/C (second compound 10 µM, first compound 0.316 µM): 0.28%
viability, T/C (second compound 10 µM, first compound 1 µM): 0.25%

NC(=O)C(=Cn1cnc(-c2cc(C(F)(F)F)cc(C(F)(F)F)c2)n1)c1cncnc1 + Cc1c(S(C)(=O)=O)c(-c2cc(F)cc(N3CCN(c4ccc(NS(=O)(=O)c5ccc(NC(CCN6CCC(C(=O)OCCCP(=O)(O)O)CC6)CSc6ccccc6)c(S(=O)(=O)C(F)(F)F)c5)cc4)CC3)c2)c(-c2ccc(Cl)cc2)n1C(C)C
IC50 (second compound 0.1 µM): 7.94 nM
IC50 (second compound 0.316 µM): 5.62 nM
IC50 (second compound 1 µM): < 0.949 nM
IC50 (second compound 3.16 µM): 0.989 nM
IC50 (second compound 10 µM): 9.35 nM
viability, T/C (second compound 0.1 µM, first compound 0.000949 µM): 79.2%
viability, T/C (second compound 0.1 µM, first compound 0.003 µM): 63%
viability, T/C (second compound 0.1 µM, first compound 0.00949 µM): 50.8%
viability, T/C (second compound 0.1 µM, first compound 0.03 µM): 17.5%
viability, T/C (second compound 0.1 µM, first compound 0.0949 µM): 5.75%
viability, T/C (second compound 0.1 µM, first compound 0.3 µM): 1.24%
viability, T/C (second compound 0.316 µM, first compound 0.000949 µM): 67%
viability, T/C (second compound 0.316 µM, first compound 0.003 µM): 59.9%
viability, T/C (second compound 0.316 µM, first compound 0.00949 µM): 41.4%
viability, T/C (second compound 0.316 µM, first compound 0.03 µM): 13.1%
viability, T/C (second compound 0.316 µM, first compound 0.0949 µM): 2.18%
viability, T/C (second compound 0.316 µM, first compound 0.3 µM): 0.54%
viability, T/C (second compound 1 µM, first compound 0.000949 µM): 48.8%
viability, T/C (second compound 1 µM, first compound 0.003 µM): 48.6%
viability, T/C (second compound 1 µM, first compound 0.00949 µM): 32.4%
viability, T/C (second compound 1 µM, first compound 0.03 µM): 9.81%
viability, T/C (second compound 1 µM, first compound 0.0949 µM): 1.61%
viability, T/C (second compound 1 µM, first compound 0.3 µM): 0.15%
viability, T/C (second compound 3.16 µM, first compound 0.000949 µM): 50.8%
viability, T/C (second compound 3.16 µM, first compound 0.003 µM): 35.8%
viability, T/C (second compound 3.16 µM, first compound 0.00949 µM): 24.6%
viability, T/C (second compound 3.16 µM, first compound 0.03 µM): 11.9%
viability, T/C (second compound 3.16 µM, first compound 0.0949 µM): 2.12%
viability, T/C (second compound 3.16 µM, first compound 0.3 µM): 0.26%
viability, T/C (second compound 10 µM, first compound 0.000949 µM): 75.6%
viability, T/C (second compound 10 µM, first compound 0.003 µM): 71.1%
viability, T/C (second compound 10 µM, first compound 0.00949 µM): 49.9%
viability, T/C (second compound 10 µM, first compound 0.03 µM): 13.7%
viability, T/C (second compound 10 µM, first compound 0.0949 µM): 1.63%
viability, T/C (second compound 10 µM, first compound 0.3 µM): 0.26%

NC1CCC(NC2CC2c2ccccc2)CC1 (stereo not given) + Cc1c(S(C)(=O)=O)c(-c2cc(F)cc(N3CCN(c4ccc(NS(=O)(=O)c5ccc(NC(CCN6CCC(C(=O)OCCCP(=O)(O)O)CC6)CSc6ccccc6)c(S(=O)(=O)C(F)(F)F)c5)cc4)CC3)c2)c(-c2ccc(Cl)cc2)n1C(C)C
IC50 (second compound 0.1 µM): > 100 nM
IC50 (second compound 0.316 µM): 8.25 nM
IC50 (second compound 1 µM): < 0.316 nM
IC50 (second compound 3.16 µM): < 0.316 nM
IC50 (second compound 10 µM): < 0.316 nM
viability, T/C (second compound 0.1 µM, first compound 0.000316 µM): 72.7%
viability, T/C (second compound 0.1 µM, first compound 0.001 µM): 65.1%
viability, T/C [1]: 65%
viability, T/C [2]: 57.6%
viability, T/C [3]: 65.2%
viability, T/C [4]: 65.3%
viability, T/C (second compound 0.316 µM, first compound 0.000316 µM): 61.2%
viability, T/C (second compound 0.316 µM, first compound 0.001 µM): 60.9%
viability, T/C [5]: 57%
viability, T/C [6]: 46.4%
viability, T/C [7]: 47.9%
viability, T/C [8]: 51.6%
viability, T/C (second compound 1 µM, first compound 0.000316 µM): 32.5%
viability, T/C (second compound 1 µM, first compound 0.001 µM): 30.4%
viability, T/C [9]: 29.1%
viability, T/C [10]: 30.5%
viability, T/C [11]: 28.3%
viability, T/C [12]: 35.4%
viability, T/C (second compound 3.16 µM, first compound 0.000316 µM): 27%
viability, T/C (second compound 3.16 µM, first compound 0.001 µM): 28.9%
viability, T/C [13]: 28.6%
viability, T/C [14]: 25.6%
viability, T/C [15]: 30.5%
viability, T/C [16]: 31.7%
viability, T/C (second compound 10 µM, first compound 0.000316 µM): 30%
viability, T/C (second compound 10 µM, first compound 0.001 µM): 41.7%
viability, T/C [17]: 26.4%
viability, T/C [18]: 26.3%
viability, T/C [19]: 32.9%
viability, T/C [20]: 36.8%
